From EP0044212B1, “Herbicidal o-alkylsulfonyloxy- and o-alkylsulfonylamino-benzenesulfonamides” (E.I. DU PONT DE NEMOURS AND COMPANY, priority 1980, dated 1982) come the findings set out here.

The subject of one experiment is Soybean. Description: Test C pre-emergence on Fallsington silt loam soil. To be noted: 0.03 kg/ha, 28 days. The format is in vivo, soybeans. An excerpt: (§1) The high herbicidal activity of two of the compounds from within the scope of the invention is evident from the results obtained in this test. The experiment concerned pre-emergence applications on soil. The containers used were 25 cm diameter plastic pots filled with Fallsington silt loam. One set of pots was planted to weeds, the seeds of which were uniformly mixed with the top 1.2 cm layer of soil. The species selected were: johnsongrass (Sorghum halepense), barnyardgrass (Echinochloa crusgalli), crabgrass (Digitaria sanguinalis), giant foxtail (Setaria faberii), velvetleaf (Abutilon theophrasti), jimsonweed (Datura stramonium), mustard (Brassica arvensis), and pigweed (Amaranthus retroflexus). Another set of pots were planted to the following crops with from one to four species per pot: corn (planting depth 3.7 cm), cotton, soybeans, sunflower, Clinton oats, wheat, Black Valentine beans, rice, sorghum, peas, flax, and peanuts (all at 2.5 cm depth), cucumbers, cabbage, alfalfa, safflower, sugarbeets, tomato, spinach, barley, and Kentucky bluegrass (all at 1.2 cm depth). Immediately after planting, the test chemical was applied to the soil surfaces dissolved in a non-phytotoxic solvent. One pot from the weed phase and one of each of the crop species were left untreated for the purpose of comparison. […]

For a further experiment, the system named is Oats. Description: Test C pre-emergence on Fallsington silt loam soil. The format is in vivo, Clinton oats. To be noted: 0.03 kg/ha, 28 days.
Excerpt: as §1

For another experiment, the system named is Peanut. Kind of experiment: Test C pre-emergence on Fallsington silt loam soil. The format is in vivo, peanuts. To be noted: 0.03 kg/ha, 28 days.
Excerpt: as §1

In another experiment the test system is Flax. Description: Test C pre-emergence on Fallsington silt loam soil. The format is in vivo. To be noted: 0.03 kg/ha, 28 days. The text has this:
(§2) The high herbicidal activity of two of the compounds from within the scope of the invention is evident from the results obtained in this test. The experiment concerned pre-emergence applications on soil. The containers used were 25 cm diameter plastic pots filled with Fallsington silt loam. One set of pots was planted to weeds, the seeds of which were uniformly mixed with the top 1.2 cm layer of soil. The species selected were: johnsongrass (Sorghum halepense), barnyardgrass (Echinochloa crusgalli), crabgrass (Digitaria sanguinalis), giant foxtail (Setaria faberii), velvetleaf (Abutilon theophrasti), jimsonweed (Datura stramonium), mustard (Brassica arvensis), and pigweed (Amaranthus retroflexus). Another set of pots were planted to the following crops with from one to four species per pot: corn (planting depth 3.7 cm), cotton, soybeans, sunflower, Clinton oats, wheat, Black Valentine beans, rice, sorghum, peas, flax, and peanuts (all at 2.5 cm depth), cucumbers, cabbage, alfalfa, safflower, sugarbeets, tomato, spinach, barley, and Kentucky bluegrass (all at 1.2 cm depth). Immediately after planting, the test chemical was applied to the soil surfaces dissolved in a non-phytotoxic solvent. One pot from the weed phase and one of each of the crop species were left untreated for the purpose of comparison. The treated and untreated pots were promptly watered with approximatley 4 mm of simultated rainfall and then held in a greenhouse for several weeks. Visual weed and crop response ratings were made 28 days after treatment utilizing the rating system as described above for Test A. The data are given in Table C.

For the next experiment, the system named is Wheat. Description: Test C pre-emergence on Fallsington silt loam soil. The format is in vivo. To be noted: 0.03 kg/ha, 28 days.
Excerpt: as §2

A further experiment relates to Tomato. Kind of experiment: Test C pre-emergence on Fallsington silt loam soil. The format is in vivo. As to conditions: 0.03 kg/ha, 28 days.
Excerpt: as §2

In experiment [1] the test system is Rice. Description: Test C pre-emergence on Fallsington silt loam soil. The format is in vivo. To be noted: 0.03 kg/ha, 28 days.
Excerpt: as §2

In the next experiment the test system is Sunflower. Description: Test C pre-emergence on Fallsington silt loam soil. To be noted: 0.03 kg/ha, 28 days. The format is in vivo.
Excerpt: as §2

Experiment [2] has as its system Barley. Description: Test C pre-emergence on Fallsington silt loam soil. The format is in vivo. As to conditions: 0.03 kg/ha, 28 days.
Excerpt: as §2

The test system of the next experiment is Bean. Description: Test C pre-emergence on Fallsington silt loam soil. The format is in vivo, Black Valentine beans. As to conditions: 0.03 kg/ha, 28 days.
Excerpt: as §1

A further experiment concerns Broadleaves. Description: Test C pre-emergence on Fallsington silt loam soil. As to conditions: 28 days. The format is in vivo, velvetleaf, jimsonweed, mustard, pigweed.
Excerpt: as §1

For another experiment, the system named is rice and corn. Kind of experiment: Crop selectivity statement (greenhouse tests). As to conditions: summary statement. The format is in vivo. An excerpt: (§3) The activity of the compounds of formula I was investigated in a number of greenhouse tests.
For a further experiment, the system named is Yellow Rocket. Kind of experiment: Test D pre-/post-emergence weed control in cereals. The format is in vivo, Barbarea vulgaris. To be noted: 0.06 kg/ha, 20 days. The text has this:
(§4) Two ten-inch in diameter plastic pans lined with polyethylene liners were filled with prepared Fallsington slit loam soil. One pan was planted with seeds of wheat (Triticum aestivum), barley (Hordeum vulgarel, wild oats (Avena fatua), downy brome (Bromus tectorum), cheatgrass (Bromus secalinus), blackgrass (Alopecurus myosuroides), annual bluegrass (Poa annual, green foxtail (Setaria viridis), quack grass (Agropyron repens), Italian ryegrass (Lolium multiflorum) and ripgut brome (Bromus rigidus). The other pan was planted with seeds of Russian thistle (Salsola kali), tansy mustard (Descuraina pinnata), smartweed (Polygonum pensylvanicum), tumble mustard (Sisymbrium altissium) kochia (Kochia scoparia), shepherd's purse (Capsella bursa-pastoris), Matricaria inodora, black nightshade (Solanum nigrum), yellow rocket (Barbarea vulgaris), wild mustard (Brassica kaber) and wild buckwheat (Polygonum convolvulus). The above two pans were treated pre-emergence. At the same time two pans in which the above plant species were growing were treated post-emergence. […]
(§5) The compounds applied were diluted with a non-phytotoxic solvent and sprayed over-the-top of the pans. […] The recorded data, presented in Table D, indicate that certain compounds from within the scope of the invention have utility for pre- and/or post-emergence weed control in cereal crops such as wheat and barley.

Experiment [3] concerns Barley. Kind of experiment: Test D pre-/post-emergence weed control in cereals. The format is in vivo, Hordeum vulgarel. As to conditions: 20 days. The text has this: (§6) Two ten-inch in diameter plastic pans lined with polyethylene liners were filled with prepared Fallsington slit loam soil. One pan was planted with seeds of wheat (Triticum aestivum), barley (Hordeum vulgarel, wild oats (Avena fatua), downy brome (Bromus tectorum), cheatgrass (Bromus secalinus), blackgrass (Alopecurus myosuroides), annual bluegrass (Poa annual, green foxtail (Setaria viridis), quack grass (Agropyron repens), Italian ryegrass (Lolium multiflorum) and ripgut brome (Bromus rigidus). The other pan was planted with seeds of Russian thistle (Salsola kali), tansy mustard (Descuraina pinnata), smartweed (Polygonum pensylvanicum), tumble mustard (Sisymbrium altissium) kochia (Kochia scoparia), shepherd's purse (Capsella bursa-pastoris), Matricaria inodora, black nightshade (Solanum nigrum), yellow rocket (Barbarea vulgaris), wild mustard (Brassica kaber) and wild buckwheat (Polygonum convolvulus). The above two pans were treated pre-emergence. At the same time two pans in which the above plant species were growing were treated post-emergence. Plant height at the time of treatment ranged from 1-15 cm depending on plant species.
(§7) The compounds applied were diluted with a non-phytotoxic solvent and sprayed over-the-top of the pans. An untreated control and a solvent alone control were included for comparison. All treatments were maintained in the greenhouse for 20 days at which time the treatments were compared to the controls and the effects visually rated. The recorded data, presented in Table D, indicate that certain compounds from within the scope of the invention have utility for pre- and/or post-emergence weed control in cereal crops such as wheat and barley.

A further experiment concerns Wild Buckwheat. Description: Test D pre-/post-emergence weed control in cereals. The format is in vivo, Polygonum convolvulus. To be noted: Pre-Emergence; 0.015 kg/ha; 20 days.
Excerpt: as §4, §5

The next experiment deals with Tumble Mustard. Description: Test D pre-/post-emergence weed control in cereals. As to conditions: 20 days. The format is in vivo, Sisymbrium altissium.
Excerpt: as §6, §7

The next experiment deals with Black Nightshade. Description: Test D pre-/post-emergence weed control in cereals. The format is in vivo, Solanum nigrum. To be noted: 0.015 kg/ha, 20 days.
Excerpt: as §4, §5

Another experiment concerns Tansy Mustard. Description: Test D pre-/post-emergence weed control in cereals. The format is in vivo, Descuraina pinnata. As to conditions: Pre-Emergence; 0.015 kg/ha; 20 days.
Excerpt: as §4, §5

For a further experiment, the system named is Russian Thistle. Kind of experiment: Test D pre-/post-emergence weed control in cereals. The format is in vivo, Salsola kali. To be noted: 20 days.
Excerpt: as §6, §7

Another experiment concerns soybeams. Kind of experiment: Crop selectivity statement (greenhouse tests). The format is in vivo. To be noted: summary statement.
Excerpt: as §3

For the next experiment, the system named is Soybeans. Description: Test F over-the-top soil/foliage treatment. The format is in vivo. As to conditions: for Soybeans response rating: soil/foliage spray, ~14 days. A digest of the protocol: (§8)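 Seed in sandy loam (Woodstown), grow in greenhouse. Spray compound, dissolved in a non-phytotoxic solvent, over plants and soil at ~14 days after planting. Score response visually versus untreated controls after ~14 days.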

Experiment [4] has as its system Rice. Kind of experiment: Test F over-the-top soil/foliage treatment. The format is in vivo. To be noted: soil/foliage spray, ~14 days. A digest of the protocol:
as §8

For the compound `COc1cc(OC)nc(NC(=O)NS(=O)(=O)c2ccccc2OS(C)(=O)=O)n1` [Compound 1, N-[(4,6-Dimethoxypyrimidin-2-yl)aminocarbonyl]-2-hydroxybenzenesulfonamide, methanesulfonate], in the experiment with Soybean, the Soybean response rating is recorded as 4G, 2lH. Further, in the experiment on Oats, the Oats response rating worked out at 4G. For the same compound, the Peanut response rating in the experiment with Peanut was 6G. In addition, the Flax response rating in the experiment on Flax is given as 6G. The Wheat response rating in the experiment with Wheat came out at 2G. In the experiment with Tomato, this compound gave a Tomato response rating of 4G. This compound showed a Rice response rating with Rice [1] of 6G. In addition, in the experiment on Sunflower, the Sunflower response rating is reported as 5G. Moreover, the Barley response rating in the experiment with Barley [2] is listed as 3G. The Bean response rating in the experiment on Bean stood at 0. Also, the Broadleaves response rating in the experiment with Broadleaves (0.0035 kg/ha) was found to be 3G; in the experiment on Broadleaves (0.0075 kg/ha) it was 4G.
`CCCS(=O)(=O)Oc1ccccc1S(=O)(=O)NC(=O)Nc1nc(OC)cc(OC)n1` [Compound 36, N-[(4,6-dimethoxypropimidin-2-yl)aminocarbonyl]-2-hydroxybenzenesulfonamide, 1-propanesulfonate]: the “selectivity on rice and corn” value with rice and corn is “shows selectivity on rice and corn”. Moreover, the “Yellow Rocket response rating” value with Yellow Rocket (Post-Emergence) and in the experiment with Yellow Rocket (Pre-Emergence) was 10C each time. The Barley response rating was 0 in the experiment with Barley [3] (Post-Emergence, 0.015 kg/ha); 0 with Barley [3] (Post-Emergence, 0.06 kg/ha); 0 with Barley [3] (Pre-Emergence, 0.015 kg/ha); 0 with Barley [3] (Pre-Emergence, 0.06 kg/ha). For the same compound, in the experiment with Wild Buckwheat, the “Wild Buckwheat response rating” value was found to be 3G. Besides, the “Tumble Mustard response rating” value in the experiment with Tumble Mustard (Post-Emergence, 0.015 kg/ha) stood at 10C; in the experiment with Tumble Mustard (Post-Emergence, 0.06 kg/ha), 10C; with Tumble Mustard (Pre-Emergence, 0.015 kg/ha), 5G. The “Black Nightshade response rating” value is recorded as 2G with Black Nightshade (Post-Emergence) and 4G with Black Nightshade (Pre-Emergence). The “Tansy Mustard response rating” value with Tansy Mustard turned out to be 2G. Also, the “Russian Thistle response rating” value is recorded as 0 in the experiment on Russian Thistle (Post-Emergence, 0.015 kg/ha); 2G with Russian Thistle (Post-Emergence, 0.06 kg/ha); 0 with Russian Thistle (Pre-Emergence, 0.015 kg/ha); 1G in the experiment with Russian Thistle (Pre-Emergence, 0.06 kg/ha).
As for `CCCS(=O)(=O)Oc1ccccc1S(=O)(=O)NC(=O)Nc1nc(C)nc(OC)n1` [Compound 39, 2-hydroxy-N-[(4-methoxy-6-methyl-1,3,5-triazin-2-yl)aminocarbonyl]benzenesulfonamide, 1-propanesulfonate], the selectivity on soybeams result in the experiment on soybeams is listed as “shows selectivity on soybeams”. In addition, the “post-emergence control of weeds in soybeans” value with Soybeans (conclusion from Test F) is given as “has utility for the post-emergence control of weeds in soybeans”. The Soybeans response rating with Soybeans (0.007 kg/ha) turned out to be 0; with Soybeans (0.03 kg/ha), 4G. Also, the Rice response rating worked out at 2G in the experiment with Rice [4] (0.007 kg/ha), 4G in the experiment with Rice [4] (0.03 kg/ha), 0 in the experiment on Rice [4] (0.06 kg/ha) and 0 in the experiment on Rice [4] (0.12 kg/ha).
